# Measured values: ChEMBL document CHEMBL4402571, “Methylation of Daptomycin Leading to the Discovery of Kynomycin, a Cyclic Lipodepsipeptide Active against Resistant Pathogens” (J Med Chem, 2020)
# What was measured:
# Enterococcus faecalis [1] = test: Bactericidal activity against Enterococcus faecalis ATCC 29212 incubated prior to replating on agar plate measured after overnight incubation; type: functional
# Staphylococcus aureus [2] = test: Antibacterial activity against Staphylococcus aureus ATCC 29213 assessed as mutation prevention concentration measured after 72 hrs; type: functional; conditions: ATCC 29213, 72 h
# Enterococcus faecalis [3] = test: Antibacterial activity against Streptococcus faecalis by broth microdilution method; type: functional
# Staphylococcus aureus [4] = test: Antibacterial activity against methicillin-resistant Staphylococcus aureus SA14 by broth microdilution method; type: functional
# Enterococcus faecium [5] = test: Antibacterial activity against Enterococcus faecium ET6 by broth microdilution method; type: functional
# Enterococcus faecalis [6] = test: Antibacterial activity against Enterococcus faecalis ATCC 29212 assessed as mutation prevention concentration measured after 72 hrs; type: functional; conditions: ATCC 29212, 72 h
# Staphylococcus aureus [7] = test: Bactericidal activity against Staphylococcus aureus ATCC 29213 incubated prior to replating on agar plate measured after overnight incubation; type: functional
# Enterococcus faecalis [8] = test: Antibacterial activity against Enterococcus faecalis ATCC 29212 by broth microdilution method; type: functional
# Staphylococcus aureus [9] = test: Antibacterial activity against methicillin-resistant Staphylococcus aureus SA88 by broth microdilution method; type: functional
# Staphylococcus aureus [10] = test: Antibacterial activity against Staphylococcus aureus USA300 infected in Balb/c mouse model of sepsis assessed as mouse survival at 0.925 mg/kg, sc administered twice daily for 5 days starting from 1 hr post-infection relative to control; type: functional
# Enterococcus faecium [11] = test: Antibacterial activity against Enterococcus faecium ET60 by broth microdilution method; type: functional
# Staphylococcus aureus [12] = test: Antibacterial activity against Staphylococcus aureus ATCC 29213 assessed as ratio of MIC after and before 7 serial passages at sub-MIC by broth microdilution method; type: functional
# Staphylococcus aureus [13] = test: Antibacterial activity against methicillin-resistant Staphylococcus aureus 0114 infected in iv dosed CD-1 ICR mouse administered as single dose measured after 7 days; type: functional; conditions: Staphylococcus aureus, 0114, iv, 168 h
# Enterococcus faecalis [14] = test: Antibacterial activity against Enterococcus faecalis T1027 by broth microdilution method; type: functional
# Staphylococcus aureus [15] = test: Antibacterial activity against Staphylococcus aureus ATCC 29213 by broth microdilution method; type: functional
# Staphylococcus aureus [16] = test: Antibacterial activity against methicillin-resistant Staphylococcus aureus SA86 by broth microdilution method; type: functional
# Staphylococcus aureus [17] = test: Antibacterial activity against methicillin-resistant Staphylococcus aureus SA11 by broth microdilution method; type: functional
# Enterococcus faecalis [18] = test: Antibacterial activity against Enterococcus faecalis ZS129 by broth microdilution method; type: functional
# Staphylococcus aureus [19] = test: Antibacterial activity against Staphylococcus aureus ATCC 29213 assessed as ratio of MIC after and before 1 serial passage at sub-MIC by broth microdilution method; type: functional
# Staphylococcus aureus [20] = test: Antibacterial activity against methicillin-resistant Staphylococcus aureus ATCC 33591 infected in iv dosed CD-1 ICR mouse administered as single dose measured after 7 days; type: functional; conditions: ATCC 33591, iv, 168 h
# Erythrocyte = test: Hemolytic activity against rat RBC at 320 ug/ml measured after 1 hr; type: ADME, cell-based
# HEK293 = test: Cytotoxicity against HEK293 cells assessed as reduction in cell viability at >= 20 mg/ml measured after 24 hrs by MTT assay; type: cell-based; conditions: human, hek293, 24 h
# [21] = Aqueous solubility of the compound in 0.9% NaCl at >= 100 measured after 15 mins; type: physicochemical; conditions: buffer, 0.25 h
# Enterococcus faecalis [22] = test: Antibacterial activity against Enterococcus faecalis ZS129 infected in Galleria mellonella larvae assessed as larvae survival at 50 mg/kg measured at 96 hrs post-infection relative to control; type: functional; conditions: ZS129, 96 h
# Enterococcus faecalis [23] = test: Antibacterial activity against Enterococcus faecalis T1027 infected in Galleria mellonella larvae assessed as larvae survival at 50 mg/kg measured at 96 hrs post-infection relative to control; type: functional; conditions: T1027, 96 h
smiles,measurement,setting,value
CCCCCCCCCC(=O)N[C@@H](Cc1c[nH]c2ccccc12)C(=O)N[C@H](CC(N)=O)C(=O)N[C@@H](CC(=O)O)C(=O)N[C@@H]1C(=O)NCC(=O)N[C@@H](CCCN)C(=O)N[C@@H](CC(=O)O)C(=O)N[C@H](C)C(=O)N[C@@H](CC(=O)O)C(=O)NCC(=O)N[C@H](CO)C(=O)N[C@@H]([C@@H](C)CC(=O)O)C(=O)N[C@@H](CC(=O)c2ccccc2N)C(=O)O[C@@H]1C [listing 1 of 2 here],MBC,Enterococcus faecalis [1],16 µg/mL
same,MPC,Staphylococcus aureus [2],16 µg/mL
same,MIC,Enterococcus faecalis [3],0.5 µg/mL
same,MIC,Staphylococcus aureus [4],0.5 µg/mL
same,MIC,Enterococcus faecium [5],4 µg/mL
same,MPC,Enterococcus faecalis [6],32 µg/mL
same,MBC,Staphylococcus aureus [7],0.25 µg/mL
same,MIC,Enterococcus faecalis [8],4 µg/mL
same,MIC,Staphylococcus aureus [9],0.5 µg/mL
same,survival at 0.925 mg/kg,Staphylococcus aureus [10],50%
same,MIC,Enterococcus faecium [11],2 µg/mL
same,Ratio,Staphylococcus aureus [12],8
same,ED50,Staphylococcus aureus [13],2.19 mg/kg
same,MIC,Enterococcus faecalis [14],16 µg/mL
same,MIC,Staphylococcus aureus [15],0.5 µg/mL
same,MIC,Staphylococcus aureus [16],0.5 µg/mL
same,MIC,Staphylococcus aureus [17],2 µg/mL
same,MIC,Enterococcus faecalis [18],0.5 µg/mL
same,Ratio,Staphylococcus aureus [19],2
same,ED50,Staphylococcus aureus [20],2.14 mg/kg
CCCCCCCCCC(=O)N[C@@H](Cc1c[nH]c2ccccc12)C(=O)N[C@H](CC(N)=O)C(=O)N[C@@H](CC(=O)O)C(=O)N[C@@H]1C(=O)NCC(=O)N[C@@H](CCCN)C(=O)N[C@@H](CC(=O)O)C(=O)N[C@H](C)C(=O)N[C@@H](CC(=O)O)C(=O)NCC(=O)N[C@H](CO)C(=O)N[C@@H]([C@@H](C)CC(=O)O)C(=O)N[C@@H](CC(=O)c2ccccc2N)C(=O)O[C@@H]1C [listing 2 of 2 here],Activity,Erythrocyte,Non-Toxic
same,Activity,HEK293,Toxic
same,solubility,[21],Soluble
CCCCCCCCCC(=O)N[C@@H](Cc1cn(C)c2ccccc12)C(=O)N[C@@H](CC(N)=O)C(=O)N[C@@H](CC(=O)O)C(=O)N[C@@H]1C(=O)NCC(=O)N[C@@H](CCCN)C(=O)N[C@@H](CC(=O)O)C(=O)N[C@H](C)C(=O)N[C@@H](CC(=O)O)C(=O)NCC(=O)N[C@H](CO)C(=O)N[C@@H]([C@H](C)CC(=O)O)C(=O)N[C@@H](CC(=O)c2ccccc2N)C(=O)O[C@@H]1C,MIC,Staphylococcus aureus [4],0.5 µg/mL
same,MIC,Enterococcus faecium [5],1 µg/mL
same,MIC,Enterococcus faecalis [8],2 µg/mL
same,MIC,Staphylococcus aureus [9],0.25 µg/mL
same,MIC,Enterococcus faecium [11],1 µg/mL
same,MIC,Staphylococcus aureus [15],0.5 µg/mL
same,MIC,Staphylococcus aureus [16],0.5 µg/mL
same,MIC,Staphylococcus aureus [17],2 µg/mL
CCCCCCCCCC(=O)N[C@@H](Cc1c[nH]c2ccccc12)C(=O)N[C@H](CC(N)=O)C(=O)N[C@@H](CC(=O)O)C(=O)N[C@@H]1C(=O)NCC(=O)N[C@@H](CCCN)C(=O)N[C@@H](CC(=O)O)C(=O)N[C@H](C)C(=O)N[C@@H](CC(=O)O)C(=O)NCC(=O)N[C@H](CO)C(=O)N[C@@H]([C@H](C)CC(=O)O)C(=O)N[C@@H](CC(=O)c2ccccc2NC)C(=O)O[C@@H]1C,MBC,Enterococcus faecalis [1],4 µg/mL
same,MPC,Staphylococcus aureus [2],8 µg/mL
same,MIC,Enterococcus faecalis [3],0.5 µg/mL
same,MIC,Staphylococcus aureus [4],0.25 µg/mL
same,MIC,Enterococcus faecium [5],1 µg/mL
same,MPC,Enterococcus faecalis [6],16 µg/mL
same,MBC,Staphylococcus aureus [7],0.06 µg/mL
same,MIC,Enterococcus faecalis [8],1 µg/mL
same,MIC,Staphylococcus aureus [9],0.25 µg/mL
same,survival at 0.925 mg/kg,Staphylococcus aureus [10],100%
same,MIC,Enterococcus faecium [11],1 µg/mL
same,ED50,Staphylococcus aureus [13],1.65 mg/kg
same,MIC,Staphylococcus aureus [15],0.25 µg/mL
same,survival at 50 mg/kg,Enterococcus faecalis [22],40%
same,MIC,Staphylococcus aureus [16],0.25 µg/mL
same,MIC,Staphylococcus aureus [17],0.5 µg/mL
same,survival at 50 mg/kg,Enterococcus faecalis [23],60%
same,ED50,Staphylococcus aureus [20],1.38 mg/kg
